Laboratory results: patent US4119784A, “Anionic substituted sulfonamido biphenyls” (American Cyanamid Company, priority 1977, dated 1978)
Counter-ions that a name gives are not always drawn.

Experiments:
Format in all cases: biochemical
[1] = system: shunt pathway activated by cobra venom factor; assay: Test, Code 036 (C-Shunt inhibitor); conditions: human erythrocytes in autologous serum; two-fold serial dilution assay; higher well number indicates higher activity
Excerpt: (§1) An active inhibitor protects C2 from C1 and C4; (ii) Test, Code 035 (C3-C9 inhibitor)--This test determines the ability of the late components of human complement (C3-C9) to lyse EAC 142 in the presence of appropriate dilutions of the test compound. An active inhibitor protects EAC 142 from lysis by human C3-C9; (iii) Test, Code 036 (C-Shunt inhibitor)--In this test human erythrocytes rendered fragile are lysed in autologous serum via the shunt pathway activated by cobra venom factor in the presence of appropriate dilutions of the test compound. Inhibition of the shunt pathway results in failure of lysis; (iv) Forssman Vasculitis Test--Here, the well known complement dependent lesion, Forssman vasculitis, is produced in guinea pigs by intradermal injection of rabbit anti-Forssman antiserum. […]

[2] = system: late components of human complement (C3-C9); assay: Test, Code 035 (C3-C9 inhibitor); set-up: key: N = Negative; conditions: protection of EAC 142 from lysis by human C3-C9; two-fold serial dilution assay
Excerpt: as §1

[3] = system: activated human C1; assay: Test, Code 026 (C1 inhibitor); conditions: activity in wells of a two-fold serial dilution assay; higher well number indicates higher activity
Excerpt: as §1

O=C(O)c1cc(NS(=O)(=O)c2ccc(-c3ccc(S(=O)(=O)Nc4cc(C(=O)O)cc(C(=O)O)c4)cc3S(=O)(=O)Nc3cc(C(=O)O)cc(C(=O)O)c3)c(S(=O)(=O)Nc3cc(C(=O)O)cc(C(=O)O)c3)c2)cc(C(=O)O)c1 [5,5',5",5'"-[2,2',4,4'-Biphenyltetrayltetrakis(sulfonylimino)[tetraisophthalic acid octasodium salt]
Shunt Inhibition 036 Wells [1]: +3 Wells
C-Late 035 Wells [2]: N
Cl 026 Wells [3]: +7 Wells
